Results: ChEMBL document CHEMBL3392998 (J Med Chem, 2014)

Experiments:
[1] = biological target: Protease (Human immunodeficiency virus 1, UniProt Q9YQ12); assay: Inhibition of wild-type HIV-1 protease using fluorogenic peptide substrate incubated for 30 mins prior to substrate addition measured after 10 mins by FRET assay
[2] = biological target: Human immunodeficiency virus type 1 protease (Human immunodeficiency virus 1, UniProt Q72874, A71V/G73S/I84V/L10I/L63P/L90M); assay: Inhibition of multidrug resistant HIV-1 protease L10I/L63P/A71V/G73S/I84V/L90M mutant using fluorogenic peptide substrate incubated for 30 mins prior to substrate addition measured after 10 mins by FRET assay
Chain of Human immunodeficiency virus type 1 protease (Q72874 entry or part of it A71V/G73S/I84V/L10I/L63P/L90M): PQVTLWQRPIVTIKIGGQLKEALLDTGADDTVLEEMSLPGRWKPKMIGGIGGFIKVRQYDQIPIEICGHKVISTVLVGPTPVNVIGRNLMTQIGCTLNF

Chain of Protease (Q9YQ12 whole entry): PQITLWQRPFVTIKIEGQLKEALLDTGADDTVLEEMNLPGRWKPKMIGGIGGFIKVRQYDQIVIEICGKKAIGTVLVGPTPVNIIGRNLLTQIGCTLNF

O=C1c2cccc([N+](=O)[O-])c2C(=O)N1c1ccc2[nH]c(=S)sc2c1
Ki [1]: 96 µM | Ki [2]: 91 µM
